Values of other authors as cited in patent US20240285562A1, “USE OF (S)-3-AMINO-4-(DIFLUOROMETHYLENYL) CYCLOPENT-1-ENE-1-CARBOXYLIC ACID IN THE TREATMENT OF MULTIPLE SCLEROSIS” (Ovid Therapeutics Inc., priority 2023, published 2024).
One block for each compound: values may come before it.

Tests used:
[1] = system: autoimmune response in EAE; settings: oral or parenteral administration, murine EAE
[2] = target: aspartate aminotransferase (Asp-AT)
[3] = target: alanine amidotransferase (Ala-AT)
OAT = target: T1, OAT (Homo sapiens, UniProt P04181)
T1 sequence (P04181 36-439 limits assumed): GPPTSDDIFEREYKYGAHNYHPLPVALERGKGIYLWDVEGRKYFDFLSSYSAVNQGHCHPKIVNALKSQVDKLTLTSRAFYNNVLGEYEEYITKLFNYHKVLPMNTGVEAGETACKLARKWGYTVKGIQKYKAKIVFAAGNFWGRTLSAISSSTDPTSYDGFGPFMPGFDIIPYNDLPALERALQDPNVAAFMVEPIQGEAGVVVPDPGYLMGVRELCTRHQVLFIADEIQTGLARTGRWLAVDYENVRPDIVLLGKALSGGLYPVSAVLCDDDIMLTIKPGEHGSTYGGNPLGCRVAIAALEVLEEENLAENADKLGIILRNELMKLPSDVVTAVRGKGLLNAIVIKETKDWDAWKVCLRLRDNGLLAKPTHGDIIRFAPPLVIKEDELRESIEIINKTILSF

SMILES: NCCCC(=O)O [GABA, gamma-aminobutyric acid]
reduction of the damaging autoimmune response [1]: ineffective

IC50 ([2]; reversible inhibition): > 4000 µM
IC50 ([3]; reversible inhibition): > 4000 µM
times more efficient an inactivator of OAT than CPP-115 (OAT; ratio of kinact/KI versus CPP-115): 9.0 times
SMILES: N[C@H]1C=C(C(=O)O)CC1=C(F)F [(S)-3-amino-4-(difluoromethylenyl)cyclopent-1-ene-1-carboxylic acid]

SMILES: N[C@H]1C[C@@H](C(=O)O)CC1=C(F)F [CPP-115, (1S,3S)-3-amino+difluoromethylenyl-1-cyclopentanoic acid, reference compound]
inactivation or inhibition of off-target enzyme [2]: not to inactivate or inhibit
inactivation or inhibition of off-target enzyme [3]: not to inactivate or inhibit
Ki (OAT; OAT inactivation): 116 µM
